Measurements reported in paper PMC6691587, “New CXCR1/CXCR2 inhibitors represent an effective treatment for kidney or head and neck cancers sensitive or refractory to reference treatments” (Theranostics, 2019).

Assays:
A498 cells = assay: Ectopic model of RCC (A498 xenograft); type: in vivo, nude (nu/nu) female mice
Experimental: (§1) One microgram of total RNA was used for the reverse transcription, using the QuantiTect Reverse Transcription kit (QIAGEN, Hilden, Germany), with blend of oligo (dT) and random primers to prime first-strand synthesis. SYBR master mix plus (Eurogentec) was used for qPCR. The mRNA level was normalized to 36B4 mRNA. The sequences of oligo nucleotides used in our experiments are describe in Table S1.
(§2) These studies were carried out in strict accordance with the recommendations in the Guide for the Care and Use of Laboratory Animals. Our experiments were approved by the ''Comité National Institutionnel d'Ethique pour l'Animal de Laboratoire'' (reference: PEA-255 and PEA-277). Cells were injected subcutaneously into the flank of 5-week-old nude (nu/nu) female mice (Janvier). When the tumor reached 100 mm^3, mice were treated. The tumor volume was determined with a caliper (v = L*l2*0.5).
1-Seven million A498 cells were injected subcutaneously. Mice were treated five times a week for 4 weeks, by gavage with placebo (dextrose water vehicle) or C29 (50 mg/kg).
(§3) Sections of formol-fixed and paraffin-embedded tumors were incubated with monoclonal anti-Ki67 (clone MIB1, DAKO) or anti-CD31 (clone MEC 13.3, BD Pharmingen) antibodies. A biotinylated secondary antibody (DAKO) was applied and binding was detected with the substrate diaminobenzidine against a hematoxylin counterstain.

CAL33 = assay: Ectopic model of HNSCC (CAL33 xenograft); type: in vivo, nude (nu/nu) female mice
Experimental: as §1, §2
One million CAL33 were injected subcutaneously.
as §3

[1] = CAL33 xenograft, 100 mg/kg gavage

O=C(Nc1cccc(Cl)c1)Nc1nc2ccc([N+](=O)[O-])cc2s1 [C29]
mRNA level of murine CD31, experimental RCC (A498 cells): decreased | decrease in the tumor weight, RCC (A498 cells; 50 mg/kg gavage): 40% | proliferation marker Ki-67, experimental RCC (A498 cells; 50 mg/kg gavage): decreased | weight loss of the animals, RCC model (A498 cells; 50 mg/kg gavage): did not observe any weight loss | decrease of the tumor volume at the end of the experiment, RCC (A498 cells; 50 mg/kg gavage five times a week for 4 weeks): more than 65% | PI3K/AKT and ERK pathways in tumor lysates, experimental RCC (A498 cells; immunoblotting): inhibited PI3K/AKT but not the ERK pathway | mRNA levels of ERL+CXCL cytokines (CXCL5/7/8), experimental RCC (A498 cells; qPCR, VEGFA not decreased): significantly decreased | mRNA level of murine CD31, experimental HNSCC (CAL33; CAL33 xenograft): decreased | decrease in the tumor weight, HNSCC (CAL33; [1]): 65% | proliferation marker Ki-67, experimental HNSCC (CAL33; [1]): decreased | weight loss of the animals, HNSCC model (CAL33; [1]): did not observe any weight loss | decrease of the tumor volume at the end of the experiment, HNSCC (CAL33; CAL33 xenograft, 100 mg/kg gavage five times a week for two weeks): more than 65% | PI3K/AKT and ERK pathways in tumor lysates, experimental HNSCC (CAL33; immunoblotting, CAL33 xenograft): both pathways | efficacy on experimental HNSCC compared with danirixin and cisplatin (CAL33; oral gavage 100 mg/kg five times a week): more efficient than danirixin, at the same dose, or than the reference treatment with cisplatin | mRNA levels of ERL+CXCL cytokines, experimental HNSCC (CAL33; qPCR, CAL33 xenograft): Only CXCL5 was decreased
